Laboratory results: patent US20230416330A1, “Optimized GIP Peptide Analogues” (Antag Therapeutics ApS, priority 2019, published 2023)
Starred links: 1 amine or outer side, 2 acyl side, 3 side chain; linkers in the order of their positions; H or OH if unused. Non-standard residues stand in square brackets, D forms with d. Residues, ends and D or L forms follow the SMILES beside them. Groups on a side chain read outwards from the residue. *: point of attachment. C18 diacid = O=C(O)CCCCCCCCCCCCCCCCC(=O)*; γGlu = O=C(O)[C@H](CCC(=O)[*:2])N[*:1]; Nle = CCCC[C@H](N)C(=O)O; AEEA = NCCOCCOCC(=O)O; Aib = CC(C)(N)C(=O)O

Tests used:
[1] = Physical stability: fibril formation in Thioflavin T (ThT) assay with agitation; assay type: physicochemical; details: 25° C., agitation
Method in brief: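 Read-out is continuous ThT fluorescence at 486 nm, with lag time taken where signal reaches 10% between pre- and post-transition baselines. Filtered samples (1, 5, 7.5 or 15 mg/ml; pH 7.4 phosphate buffer or NaOH-adjusted water) were stressed at 25° C. by orbital rotation at 300 rpm with one silica bead per well.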

[2] = Solubility by visual inspection of peptide solutions; assay type: physicochemical
Method in brief: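 Solubility scored by eye: clear, colorless appearance after gentle mixing. Samples prepared at 1, 5, 7.5 or 15 mg/ml in either pH 7.4 water (NaOH-adjusted) or 50 mM sodium phosphate buffer, pH 7.4.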

human GIP receptor = biological target: T1, human GIP receptor (Homo sapiens, UniProt P48546); assay: cAMP assay Alternative 1 (CisBio assay), GIPR antagonism; assay type: cell-based; details: Table 2B; for cAMP antagonism % inhib: % inhibition of Emax
T1 construct: host or cells: HEK-293 cells, transient transfection (Lipofectamine 2000), cDNA in pCMV-Script vector
T1 sequence (P48546 22-466): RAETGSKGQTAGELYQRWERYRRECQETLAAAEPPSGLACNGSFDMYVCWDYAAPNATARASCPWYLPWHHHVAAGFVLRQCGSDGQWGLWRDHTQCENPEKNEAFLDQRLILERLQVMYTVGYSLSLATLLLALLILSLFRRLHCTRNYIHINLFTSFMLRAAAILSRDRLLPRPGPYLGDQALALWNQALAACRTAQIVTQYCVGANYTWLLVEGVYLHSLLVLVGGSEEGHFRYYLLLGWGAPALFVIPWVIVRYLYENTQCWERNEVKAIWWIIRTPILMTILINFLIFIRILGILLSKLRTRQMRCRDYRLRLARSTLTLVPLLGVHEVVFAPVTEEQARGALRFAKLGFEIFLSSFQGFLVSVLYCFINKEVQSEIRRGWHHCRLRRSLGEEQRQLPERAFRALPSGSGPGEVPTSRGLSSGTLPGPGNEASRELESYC
Method in brief: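 HEK293 cells transiently transfected with hGIPR, compounds diluted in HBSS/HEPES/pluronic/casein with 500 uM IBMX; decrease in intracellular cAMP read by HTRF (665/620 nm) and converted via cAMP standard curve. pIC50 from four-parameter fit; agonism tested separately after 30 min at 37° C.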

SMILES	Avr lag time (h) ([1]; 1 mg/ml, TFA, Phosphate (7.4))	Visual appearance ([2]; 1 mg/ml, TFA, Phosphate (7.4))	cAMP antagonism % inhib (human GIP receptor) [%]	Avr lag time (h) ([1]; 5 mg/ml, Na, MilliQ (8))	Visual appearance ([2]; 5 mg/ml, Na, MilliQ (8))	IC50 (human GIP receptor; HEK-293 cells transiently expressing hGIPR, agonist GIP1-42 at EC50, read-out: cAMP antagonism) [nM]	Avr lag time (h) ([1]; 7.5 mg/ml, Na, MilliQ (8))	Avr lag time (h) ([1]; 15 mg/ml, Na, MilliQ (8))	Visual appearance ([2]; 7.5 mg/ml, Na, MilliQ (8))	Visual appearance ([2]; 15 mg/ml, Na, MilliQ (8))
CC[C@H](C)[C@H](NC(=O)[C@H](CO)NC(=O)[C@H](Cc1ccc(O)cc1)NC(=O)[C@H](CCC(=O)O)NC(=O)[C@H](CO)NC(=O)[C@@H](NC(=O)[C@H](Cc1ccccc1)NC(=O)[C@@H](NC(=O)CNC(=O)[C@@H](N)CCC(=O)O)[C@@H](C)O)[C@@H](C)CC)C(=O)N[C@@H](C)C(=O)N[C@@H](CC(C)C)C(=O)N[C@@H](CCC(=O)O)C(=O)N[C@@H](CCCCN)C(=O)N[C@H](C(=O)N[C@@H](CCCCNC(=O)COCCOCCNC(=O)COCCOCCNC(=O)CC[C@H](NC(=O)CCCCCCCCCCCCCCCCC(=O)O)C(=O)O)C(=O)N[C@@H](CCC(N)=O)C(=O)N[C@@H](CCC(N)=O)C(=O)N[C@@H](CCC(=O)O)C(=O)N[C@@H](Cc1ccccc1)C(=O)N[C@H](C(=O)N[C@@H](CCC(=O)O)C(=O)N[C@@H](Cc1c[nH]c2ccccc12)C(=O)N[C@@H](CC(C)C)C(=O)N[C@@H](CC(C)C)C(=O)N[C@@H](C)C(=O)N[C@@H](CCC(N)=O)C(=O)N[C@@H](CCCCN)C(=O)N1CCC[C@H]1C(=O)N[C@@H](CO)C(=O)N[C@@H](CO)C(=O)NCC(=O)N[C@@H](C)C(=O)N1CCC[C@H]1C(=O)N1CCC[C@H]1C(=O)N1CCC[C@H]1C(=O)N[C@@H](CO)C(=O)O)C(C)C)[C@@H](C)CC [AT693] (H-EGTFISEYSIALEKIK([AEEA-AEEA-γGlu-C18 diacid])QQEFVEWLLAQKPSSGAPPPS-OH; N-terminus assumed)	fnd (Fnd = fibrils not detected within experiment time (96 hours) with agitation.)	Clear	96							
CCCC[C@H](NC(=O)[C@H](C)NC(=O)[C@@H](NC(=O)[C@H](CO)NC(=O)[C@H](Cc1ccc(O)cc1)NC(=O)[C@H](CCC(=O)O)NC(=O)[C@H](CO)NC(=O)[C@@H](NC(=O)[C@H](Cc1ccccc1)NC(=O)[C@@H](NC(=O)CNC(=O)[C@@H](N)CCC(=O)O)[C@@H](C)O)[C@@H](C)CC)[C@@H](C)CC)C(=O)N[C@@H](CCC(=O)O)C(=O)N[C@@H](CCCCN)C(=O)N[C@H](C(=O)N[C@@H](CCCCNC(=O)COCCOCCNC(=O)COCCOCCNC(=O)CC[C@H](NC(=O)CCCCCCCCCCCCCCCCC(=O)O)C(=O)O)C(=O)N[C@@H](CCC(N)=O)C(=O)N[C@@H](CCC(N)=O)C(=O)N[C@@H](CCC(=O)O)C(=O)N[C@@H](Cc1ccccc1)C(=O)N[C@H](C(=O)N[C@@H](CCC(=O)O)C(=O)N[C@@H](Cc1c[nH]c2ccccc12)C(=O)N[C@@H](CC(C)C)C(=O)N[C@@H](CC(C)C)C(=O)N[C@@H](C)C(=O)N[C@@H](CCC(N)=O)C(=O)N[C@@H](CCCCN)C(=O)N1CCC[C@H]1C(=O)N[C@@H](CO)C(=O)N[C@@H](CO)C(=O)NCC(=O)N[C@@H](C)C(=O)N1CCC[C@H]1C(=O)N1CCC[C@H]1C(=O)N1CCC[C@H]1C(=O)N[C@@H](CO)C(=O)O)C(C)C)[C@@H](C)CC [AT694] (H-EGTFISEYSIA[Nle]EKIK([AEEA-AEEA-γGlu-C18 diacid])QQEFVEWLLAQKPSSGAPPPS-OH; N-terminus assumed)	fnd (Fnd = fibrils not detected within experiment time (96 hours) with agitation.)	Clear	88							
CC[C@H](C)[C@H](NC(=O)[C@H](CCCCN)NC(=O)[C@H](CCC(=O)O)NC(=O)[C@H](CC(C)C)NC(=O)C(C)(C)NC(=O)[C@@H](NC(=O)[C@H](CO)NC(=O)[C@H](Cc1ccc(O)cc1)NC(=O)[C@H](CCC(=O)O)NC(=O)[C@H](CO)NC(=O)[C@@H](NC(=O)[C@H](Cc1ccccc1)NC(=O)[C@@H](NC(=O)CNC(=O)[C@@H](N)CCC(=O)O)[C@@H](C)O)[C@@H](C)CC)[C@@H](C)CC)C(=O)N[C@@H](CCCCNC(=O)COCCOCCNC(=O)COCCOCCNC(=O)CC[C@H](NC(=O)CCCCCCCCCCCCCCCCC(=O)O)C(=O)O)C(=O)N[C@@H](CCC(N)=O)C(=O)N[C@@H](CCC(N)=O)C(=O)N[C@@H](CCC(=O)O)C(=O)N[C@@H](Cc1ccccc1)C(=O)N[C@H](C(=O)N[C@@H](CCC(=O)O)C(=O)N[C@@H](Cc1c[nH]c2ccccc12)C(=O)N[C@@H](CC(C)C)C(=O)N[C@@H](CC(C)C)C(=O)N[C@@H](C)C(=O)N[C@@H](CCC(N)=O)C(=O)N[C@@H](CCCCN)C(=O)N1CCC[C@H]1C(=O)N[C@@H](CO)C(=O)N[C@@H](CO)C(=O)NCC(=O)N[C@@H](C)C(=O)N1CCC[C@H]1C(=O)N1CCC[C@H]1C(=O)N1CCC[C@H]1C(=O)N[C@@H](CO)C(=O)O)C(C)C [AT695] (H-EGTFISEYSI[Aib]LEKIK([AEEA-AEEA-γGlu-C18 diacid])QQEFVEWLLAQKPSSGAPPPS-OH; N-terminus assumed)	fnd (Fnd = fibrils not detected within experiment time (96 hours) with agitation.)	Clear	98	fnd (Fnd = fibrils not detected within experiment time (96 hours) with agitation.)	Clear	0.794				
CCCC[C@H](NC(=O)C(C)(C)NC(=O)[C@@H](NC(=O)[C@H](CO)NC(=O)[C@H](Cc1ccc(O)cc1)NC(=O)[C@H](CCC(=O)O)NC(=O)[C@H](CO)NC(=O)[C@@H](NC(=O)[C@H](Cc1ccccc1)NC(=O)[C@@H](NC(=O)CNC(=O)[C@@H](N)CCC(=O)O)[C@@H](C)O)[C@@H](C)CC)[C@@H](C)CC)C(=O)N[C@@H](CCC(=O)O)C(=O)N[C@@H](CCCCN)C(=O)N[C@H](C(=O)N[C@@H](CCCCNC(=O)COCCOCCNC(=O)COCCOCCNC(=O)CC[C@H](NC(=O)CCCCCCCCCCCCCCCCC(=O)O)C(=O)O)C(=O)N[C@@H](CCC(N)=O)C(=O)N[C@@H](CCC(N)=O)C(=O)N[C@@H](CCC(=O)O)C(=O)N[C@@H](Cc1ccccc1)C(=O)N[C@H](C(=O)N[C@@H](CCC(=O)O)C(=O)N[C@@H](Cc1c[nH]c2ccccc12)C(=O)N[C@@H](CC(C)C)C(=O)N[C@@H](CC(C)C)C(=O)N[C@@H](C)C(=O)N[C@@H](CCC(N)=O)C(=O)N[C@@H](CCCCN)C(=O)N1CCC[C@H]1C(=O)N[C@@H](CO)C(=O)N[C@@H](CO)C(=O)NCC(=O)N[C@@H](C)C(=O)N1CCC[C@H]1C(=O)N1CCC[C@H]1C(=O)N1CCC[C@H]1C(=O)N[C@@H](CO)C(=O)O)C(C)C)[C@@H](C)CC [AT696] (H-EGTFISEYSI[Aib][Nle]EKIK([AEEA-AEEA-γGlu-C18 diacid])QQEFVEWLLAQKPSSGAPPPS-OH; N-terminus assumed)	fnd (Fnd = fibrils not detected within experiment time (96 hours) with agitation.)	Clear	97	fnd (Fnd = fibrils not detected within experiment time (96 hours) with agitation.)	Clear		fnd (Fnd = fibrils not detected within experiment time (96 hours) with agitation.)	fnd (Fnd = fibrils not detected within experiment time (96 hours) with agitation.)	Clear	Clear
